“And” between values parts separate entries of the source, which are not always exact repeats. Identical values can stand only once.
Key:
[1] = test system: relapsed and/or refractory CD19+ NHL; settings: human, in vivo
[2] = test system: relapsed and/or refractory CD19+ B-ALL; format: in vivo, human

Molecule	HR (95% CI) for PFS [1]	HR for PFS [1]	Estimate, univariate association with Disease-Free Survival ([2]; human, in vivo)	Estimate, univariate association with Overall Survival ([2]; human, in vivo)	Exp (Coef) = hazard ratio for DFS ([2]; human, in vivo)	Exp (−Coef) for DFS ([2]; human, in vivo)	Hazard Ratio (95% CI) for DFS ([2]; human, in vivo)	Odds Ratio (95% CI) for MRD-negative CR ([2]; univariate, fludarabine added to cyclophosphamide-based lymphodepletion (Y))
cyclophosphamide and fludarabine [Cy/Flu]	1.92 (0.99-3.72)	4.266	0.2967	0.4349	0.2490	4.0154	0.2777 (0.1095-0.7042) and 0.2794 (0.1109-0.7042)	
Nc1nc(F)nc2c1ncn2[C@@H]1O[C@H](CO)[C@@H](O)[C@@H]1O [Fludarabine, fludarabine]								0.50 (0.03-3.31)

Reference: US20210223248A1 (priority 2018, published 2021)
